Patent US20120213789A1, “New Molecular Target for Treatment of Cancer” (priority 2001, published 2012)

Experiments:
[1] = system: ML-SV40 Prostat Cell Line; assay: Dual label UC28 C/AnnexinV flow cytometry after SPB treatment; type: cell-based; conditions: for Total AnnexV / Total UC28C: 72 hours, ML-SV40, UC28-GAR-CY5/AnnexV-FITC
Experimental: (§1) Cells were grown to 70-80% confluence at 37° C. and 5% CO2 in T-75 tissue culture plastic flasks. SPB stock solution was added to final concentrations of 0.5, 5.0, 10.0, and 25.0 mM in appropriate fresh media to the cell cultures. Cells were incubated at 37° C. and 5% CO2 for 72 hours. Attached cells were then harvested using a solution of 0.05% trypsin and 0.53 mM EDTA (Invitrogen Corp.). Attached cells were then pooled with any the detached cells and washed with PBS pH 7.2. Cell numbers and percent viability were determined using Trypan blue dye exclusion and a hemacytometer. At the time of their use in an experiment the viability was usually about 85% for untreated cells and a range of about 15-70% for treated cells, with the lower viabilities found at higher SPB concentrations (Thompson C, 1995; Cory et al., 1998; van Engeland et al., 1996).
VO1 Apoptosis Detection Kit contains: (1) Fluorocein-isothiocyante (FITC) conjugated AnnexinV [AnnexinV01] 1 ml (2) Propidium Iodide [Annex-Pi] 2.0 ml (3) 4× Binding Buffer [Annex-B] 20.0 ml. Vendor is CalTag Laboratories, Inc., 1849 Bayshore Boulevard #200 Burlingame, Calif. 94010.
UC28(C) is 2.14 mg/ml rabbit polyclonal aliquot directed against the inventors' UC28 patented biomarker developed by UCor R&D gene discovery program. The Antibody was produced against a twenty amino acid (AA) synthetic peptide from the predicted AA sequence (AA 21-37) UCor, Inc. 840 Research Parkway Oklahoma City, Okla. 73104.
Goat Anti-Rabbit CY5 polyclonal Fluorchrome was used as the secondary conjugate for UC28 C rabbit polyclonal antibody and a background control for UC28 C polyclonal. Vendor is Jackson ImmunoResearch Laboratories, Inc. 872 West Baltimore Pike, P.O. Box 9 West Grove, Pa. 19390.
MsIgG-FITC mouse conjugated-FITC was used for background control for AnnexinV01. Vendor is Becicman Coulter, Inc. Diagnostic Division, 11800 SW 147th Ave. M/S 42-003, P.O. Box 169015, Miami, Floridia 33116-9015.
A Coulter Elite engineered with a triple laser system was used to analyze all samples. Coulter control beads were used to align lasers for the dual label testing of cell samples. Laser alignment was required for both the Argon (488 nm line) laser and HeNe (633 nm line) laser. These alignments were performed prior to all measurements with the Argon laser (488 nm line) using fluorophores for FITC, RPE, PI and the HeNe laser (633 nm line) for the Cy5 fluorophores being used for the experiments described below. The histographs, voltage settings, gates, color compensation, and pressures were established prior to all sample processing. […]
UC28 and Annexin V were co-labeled in the three cell lines to assess the induction of UC28 by SPB and its correlation to the induction of apoptosis. […] It may be noted that in previously published experiments, AnnexinV and PI were run in combination with several prostate cancer cell lines, one of which was LNCaP, but not with C4-2B or MLC-SV40. It was determined that they produced similar dose-response kinetics when exposed to 0.5-25 mM of SPB for 72 hours (Ng et al., 1989). That is, as the dose of SPB increased, so did the membrane perturbation events measured by these two methods.

[2] = system: C4-2B metastatic cell line; assay: Secretion of soluble tPSA and fPSA under SPB treatment; type: cell-based, human; conditions: culture supernatants
Experimental: as §1, with “1996). […] The data confirms the biological differences in these three cell lines and provides a stronger basis upon which to assess the behavior of the UC28 gene under the same SPB treatment conditions. For both of these experiments, supernatants were collected from the same experiments as in Example 1; cells were collected and assayed for apoptosis as well as for UC28 antigen expression using antibodies to SEQ ID NO:4.” for “1996).”

[3] = SPB, MLC-SV40, summary of Table 5

With `O=C([O-])CCCc1ccccc1.[Na+]` [SPB, 4-Phenylbutyric Acid, Sodium Salt] the “Total AnnexV” value ([1]; 0.5 mM SPB) was 11.4%, the “Total UC28C” value ([1]; 0.5 mM SPB) was 8.6% and the “Total AnnexV” value ([1]; 5.0 mM SPB) was 90.2%. For the same compound, the “Total UC28C” value ([1]; 5.0 mM SPB) was 6.8%, the “Total AnnexV” value ([1]; 10 mM SPB) was 95.7% and the “Total UC28C” value ([1]; 10 mM SPB) was 6.8%. For the same compound, the “Total AnnexV” value ([1]; 25 mM SPB) was 90.7%, the “Total UC28C” value ([1]; 25 mM SPB) was 9.3% and the UC28 up regulation [1, 3] was “not”. For the same compound, the induction of apoptosis [1, 3] was “induced”, the fPSA production [2] was “down-regulated” and the tPSA production [2] was “down-regulated”.
